These results are taken from article PMC8229129, “Local Colonic Administration of a Serine Protease Inhibitor Improves Post-Inflammatory Visceral Hypersensitivity in Rats” (Pharmaceutics, 2021).

The subject of assay [1] is elastase-like, cathepsin G and kallikrein activities in colonic tissue. Put plainly: Other specific proteolytic activities in colonic tissue of post-colitis rats after intracolonic administration. It counts as in vivo, Sprague–Dawley rats. The conditions noted are these: 5 mg/kg intracolonic, 90 min. As to the method: (§1) The serine protease inhibitor UAMC-00050 (0.1–1.0–2.5–5.0 mg/kg, dissolved in a volume of 200 µL) or its vehicle (5% DMSO in H2O) was delivered colonically using a flexible catheter (18 G, length 4.5 cm) under short-lasting isoflurane anesthesia (5.0% induction, 1.5% maintenance). To prevent expulsion of the enema, animals were held in a Trendelenburg position for 90 s. Doses for intracolonic administration were based on the doses known to be effective via an i.p. administration and adapted afterwards based on preliminary results.
Trypsin-like, chymotrypsin-like, cathepsin G, elastase-like, and kallikrein activities were determined in colon tissue and fecal samples to profile serine protease activity. […]
Boc-Gln-Ala-Arg-AMC (75 µM) and n-Tosyl-Gly-Pro-Arg-AMC (100 µM) in 50 mM Tris-HCl pH 8.0 containing 120 mM NaCl were used to measure the trypsin-like activity. […] The fluorescence was measured during 20 min at 37 °C on a Tecan Infinite F200 Pro microtiter plate reader. The other activities were assessed in a similar assay, using the substrates mentioned below. Chymotrypsin-like and kallikrein activity were measured with Suc-Ala-Ala-Pro-Phe-AMC (0.45 mM) and H-Pro-Phe-Arg-AMC (0.45 mM), respectively. Elastase-like activity was measured using two assays, one using Suc-Ala-Ala-Pro-Val-AMC as a substrate and the other using Suc-Ala-Ala-Ala-AMC (both 0.45 mM). […]

Assay [2] has as its system visceral hypersensitivity in post-colitis rats. Set-up: method as in PMID 29911328. The conditions noted are these: TNBS-induced post-inflammatory rats, intraperitoneally; cited from earlier work.
Assay [3] has the same test system. Put plainly: Visceromotor response (VMR) to colorectal distensions, TNBS-induced post-colitis rat model for visceral hypersensitivity. It counts as in vivo, Sprague–Dawley rats. As to the method:
A well-characterized 2,4,6-trinitrobenzene sulfonic acid (TNBS)-induced post-colitis rat model for visceral hypersensitivity was used in this study. Details on the procedures are given in subsequent paragraphs. After acclimation, an enema containing TNBS was used to induce a mild colitis, whereas control rats received an enema containing saline. The presence and severity of acute colitis were scored colonoscopically 3 days later. Subsequently, a colonoscopy was performed starting from day 10 and repeated every 4 days until complete mucosal healing was observed. Then, electromyographic (EMG) electrodes were implanted in the abdominal musculature of the rat and exteriorized at the scapular region. Three days later, the serine protease inhibitor UAMC-00050 or its vehicle was given intracolonically. Thirty minutes after the single administration of the drug, visceral sensitivity to colorectal distensions and colonic compliance were evaluated. Finally, animals were sacrificed (exsanguination under pentobarbital anesthesia, 45 mg/kg i.p.) and inflammatory parameters (colonoscopy, macroscopy, microscopy, and myeloperoxidase (MPO) activity) were scored to confirm the post-inflammatory state of the animal and to evaluate effects of the compound on mucosal inflammation. Colonic and fecal samples were taken for the assessment of proteolytic activities using selective fluorogenic substrates. Pharmacokinetic experiments were performed in a separate group of rats.
After an overnight fast with free access to water, rats were anesthetized with a mixture of ketamine (35 mg/kg, i.p.) and xylazine (5 mg/kg, i.p.) and placed in a Trendelenburg position. A flexible catheter (18 G, length 4.5 cm) was used to administer a 250 µL TNBS-enema (4 mg in 50% ethanol) or saline in the distal colon of randomized colitis and control rats, respectively, according to previously published protocols. Afterwards, animals were allowed to recover in their own cages with free access to water and food.
as §1
Contractions of the abdominal musculature in response to isobaric colorectal distensions, a nociceptive reflex known as the visceromotor response (VMR), were used to quantify colonic mechanosensitivity in vivo [24, 28]. To this end, 2 Teflon-coated EMG electrodes (AISI 316 stainless steel, ø 0.125 mm, Advent Research Material Ltd., Oxford, UK) were sutured into the abdominal external oblique muscle, in close proximity to the right inguinal ligament and 5 mm apart. Then, the electrodes were tunneled, subcutaneously towards the base of the neck, exteriorized, and fixated with a plastic cap for future access. Rats were single-housed during their 3-day recovery after the surgical procedure to protect the electrodes and plastic cap from damage.
On the day of the VMR experiment, a lubricated balloon (length 5.0 cm) was introduced into the colorectum of the conscious rat and connected to a barostat, allowing phasic isobaric colonic distensions (Distender Series IIR Barostat, G&J Electronics, Toronto, ON, Canada). EMG electrodes were attached to a data acquisition system and a standardized, pressure-controlled phasic distension protocol was used to expand the balloon (20 s distensions of 10–20–30–40–60 mmHg, 4 min interval). […]

A further assay concerns colonic mucosal damage. In words: Macroscopic score of mucosal damage. It counts as in vivo, Sprague–Dawley rats. The note with it: for Macroscopy, Day of VMR: score 0–10, mean ± SEM, n = 8. As to the method: After VMR and compliance measurements, the rat was sacrificed by exsanguination under pentobarbital anesthesia (45 mg/kg, i.p.). The colon was excised, rinsed with Krebs solution, opened along the mesenteric border, and evaluated visually for the presence of mucosal damage using a previously validated scoring system (total score 0–10, Supplementary Table S2).

Another assay relates to cathepsin G. Set-up: method as in PMID 29911328. The conditions noted are these: in vitro; cited from earlier work.

Read-outs that look alike come from different tables or passages of the source.

For `CC(=O)Nc1ccc(OP(=O)(Oc2ccc(NC(C)=O)cc2)C(Cc2ccc(N=C(N)N)cc2)NC(=O)OCc2ccccc2)cc1.Cl` (stereo not drawn) [UAMC-00050], in assay [1], the “Effect on the other specific proteolytic activities (elastase-like, cathepsin G, kallikrein) in colonic tissue” value is given as “No effect”. The “Dose required to obtain complete reversal of visceral hypersensitivity” value in assay [2] was 1.0 mg/kg; in assay [3] (post-colitis rats, intracolonic) it was 2.5 mg/kg. Moreover, the “Effect on visceral sensitivity (VMR)” value is “no changes in visceral sensitivity” in assay [3] (control rats, 5.0 mg/kg single intracolonic administration); “attenuated visceral sensitivity at 30 and 40 mmHg” in assay [3] (post-colitis rats, 0.1 mg/kg single intracolonic administration, 30 min before); “decreased visceral sensitivity at 20 mmHg” in assay [3] (post-colitis rats, 1.0 mg/kg single intracolonic administration, 30 min before); “completely restored sensitivity to normal values” in assay [3] (post-colitis rats, 2.5 mg/kg single intracolonic administration, 30 min before); “VMRs that were even lower than those in control rats” in assay [3] (post-colitis rats, 5.0 mg/kg single intracolonic administration, 30 min before). Besides, the “Macroscopy, Day of VMR” value with colonic mucosal damage (control rats, 5.0 mg/kg intracolonic) amounted to 0.0 ± 0.0; in the assay with colonic mucosal damage (post-colitis rats, 0.1 mg/kg intracolonic), 0.0 ± 0.0; in the assay with colonic mucosal damage (post-colitis rats, 1.0 mg/kg intracolonic), 0.0 ± 0.0; in the assay with colonic mucosal damage (post-colitis rats, 2.5 mg/kg intracolonic), 0.0 ± 0.0; in the assay with colonic mucosal damage (post-colitis rats, 5.0 mg/kg intracolonic), 0.0 ± 0.0. Also, in the assay on colonic mucosal damage (single intracolonic administration, control and post-colitis rats), the “Effect on macroscopic evaluation of mucosal damage” value is reported as “no effect”. Moreover, in the assay on cathepsin G, the “inhibition of cathepsin G” value is “efficiently inhibits”.
